We go through 15 molecules from patent US20240417387A1, “SULFONYLPIPERAZINYL COMPOUNDS FOR TREATMENT OF BACTERIAL INFECTIONS” (Hoffmann-La Roche Inc., priority 2021, published 2024).

Series [1] deals with Escherichia coli ATCC 25922. The experiment in a line: Minimal Inhibitory Concentration (MIC) broth dilution assay, E. coli ATCC 25922. It is filed as cell-based. Particulars: Escherichia coli, ATCC25922, 20 h, read-out: MIC E. coli ATCC 25922. In outline: (§1)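 Broth microdilution with twofold compound series in cation-adjusted Mueller Hinton broth, inoculum 5×10^5 CFU/mL, applied to each strain. Plates incubated 20 h at 35 °C in ambient air. MIC […] recorded as the lowest concentration with no visible growth, read by eye.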
A general note: In broth dilution the organism is exposed to a series of concentrations in liquid medium.

The test system of series [2] is Klebsiella pneumonia ATCC 43816. Description: Minimal Inhibitory Concentration (MIC) broth dilution assay, K. pneumonia ATCC 43816. It is filed as cell-based. The note with it: Klebsiella pneumoniae, ATCC43816, 20 hours at 35° C., CAMHB, read-out: MIC K. p ATCC 43816. The gist of the method: as §1
Series [3] deals with Escherichia coli UDP-2,3-diacylglucosamine hydrolase (LpxH) (Escherichia coli (strain K12), UniProt P43341). The experiment in a line: Enzymatic IC50 assay of Escherichia coli LpxH (UMP/CMP-Glo luminescence). It is filed as biochemical. Particulars: Enzymatic IC50 against Escherichia coli LpxH; read-out: IC50 (converted). In outline: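 LpxH (2 nM) preincubated 10 min at room temperature with compound (100 μM to 1.7 nM) in Tris-HCl pH7.5 buffer with 2.5 mM MnCl2, then reacted with 5 μM UDP-DAG for 20 min. Reaction heat-stopped at 95° C.; released UMP converted to ATP and read by luciferase luminescence (UMP/CMP-Glo).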

Series [4] deals with Escherichia coli BW 25113. The experiment in a line: Minimal Inhibitory Concentration (MIC) broth dilution assay, E. coli BW 25113. The class given is cell-based. The note with it: Escherichia coli, BW25113, 20 hours at 35° C., CAMHB, read-out: MIC E. coli K-12 BW 25113. The gist of the method:
as §1

Series [5] in a line: Human microsome stability assay. It is filed as in vitro ADME. The note with it: human liver microsomes 0.5 mg/mL, 37° C., pH 7.4, NADPH regenerating system. The gist of the method:
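Compound […] with 0.5 mg/mL human liver microsomal protein in 100 mM potassium phosphate pH 7.4, 10 min preincubation at 37 °C, started with NADPH regenerating system. Sampled 0–30 min, remaining compound by LC-MS/MS; clearance binned low <7, medium 7–16.2, high >16.2 mL/min/kg.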

Structures are written as SMILES. Converted amounts (≈) assume the structure as drawn.

Chain of Escherichia coli UDP-2,3-diacylglucosamine hydrolase (LpxH) (P43341 whole entry): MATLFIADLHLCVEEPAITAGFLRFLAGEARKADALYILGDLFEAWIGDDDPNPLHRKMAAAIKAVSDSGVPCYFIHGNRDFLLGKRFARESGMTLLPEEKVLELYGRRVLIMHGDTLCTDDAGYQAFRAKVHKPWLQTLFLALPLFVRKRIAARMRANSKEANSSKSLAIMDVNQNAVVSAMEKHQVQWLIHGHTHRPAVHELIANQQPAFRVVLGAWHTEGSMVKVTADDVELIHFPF

Regarding `CN(CCN)C(=O)[C@H]1CC[C@H](C(F)(F)c2cc(Cl)nc(N3CCN(S(=O)(=O)c4ccc(N5C[C@H](N)CC5=O)cc4)CC3)c2)CC1` [Example 030, Trans-N-(2-aminoethyl)-4-[[2-chloro-6-[4-[4-[(4R)-4-amino-2-oxo-pyrrolidin-1-yl]phenyl]sulfonylpiperazin-1-yl]-4-pyridyl]-difluoro-methyl]-N-methyl-cyclohexanecarboxamide], the MIC (commonly the lowest concentration found to suppress growth) in series [1] is 1.1 µg/mL (≈ 1.65 µM); in series [2] it was 1.7 µg/mL (≈ 2.54 µM); in series [4], 1.7 µg/mL (≈ 2.54 µM). The IC50 (as a rule, the concentration at which inhibition is half-maximal) in series [3] was 8.98 nM. Further, in series [5], the “Clearance of Human microsome” value is 6.90 mL/min/kg.
Turning to `NCCCNC(=O)[C@H]1CC[C@@H](C(F)(F)c2cc(Cl)nc(N3CCN(S(=O)(=O)c4ccc(N5C[C@H](N)CC5=O)cc4)CC3)c2)CC1` [Example 031], the MIC in series [1] came to 2.2 µg/mL (≈ 3.29 µM); in series [2], 2.2 µg/mL (≈ 3.29 µM); in series [4], 1.7 µg/mL (≈ 2.54 µM). In series [3], the IC50 was 7.48 nM. Also, the “Clearance of Human microsome” value in series [5] came to 6.15 mL/min/kg.
With `NCCCNC(=O)C12CCC(C(F)(F)c3cc(Cl)nc(N4CCN(S(=O)(=O)c5ccc(N6C[C@H](N)CC6=O)cc5)CC4)c3)(CC1)CC2` [Example 033, N-(3-aminopropyl)-4-[[2-chloro-6-[4-[4-[(4R)-4-amino-2-oxo-pyrrolidin-1-yl]phenyl]sulfonylpiperazin-1-yl]-4-pyridyl]-difluoro-methyl]bicyclo[2.2.2]octane-1-carboxamide], the minimal inhibitory concentration (MIC) in series [1] turned out to be 0.57 µg/mL (≈ 0.821 µM); in series [2], 0.43 µg/mL (≈ 0.619 µM); in series [4], 1.1 µg/mL (≈ 1.58 µM). Moreover, the IC50 in series [3] was 5.76 nM. Further, in series [5], the “Clearance of Human microsome” value is reported as 10.77 mL/min/kg.
For `NCCCNC(=O)C12CCC(C(F)(F)c3cc(Cl)nc(N4CCN(S(=O)(=O)c5ccc(N6C[C@H](N)CC6=O)cc5)CC4)c3)(CC1)C2` [Example 034, N-(3-aminopropyl)-4-[[2-chloro-6-[4-[4-[(4R)-4-amino-2-oxo-pyrrolidin-1-yl]phenyl]sulfonylpiperazin-1-yl]-4-pyridyl]-difluoro-methyl]norbornane-1-carboxamide], in that order: 1.1 µg/mL (≈ 1.62 µM), 1.1 µg/mL (≈ 1.62 µM), 1.7 µg/mL (≈ 2.5 µM), 29.4 nM and 6.15 mL/min/kg.
For `NCC(O)CNC(=O)[C@H]1CC[C@H](C(F)(F)c2cc(Cl)nc(N3CCN(S(=O)(=O)c4ccc(N5C[C@H](N)CC5=O)cc4)CC3)c2)CC1` (stereo partly drawn) [Example 036, Trans-N-(3-amino-2-hydroxy-propyl)-4-[[2-chloro-6-[4-[4-[(4R)-4-amino-2-oxo-pyrrolidin-1-yl]phenyl]sulfonylpiperazin-1-yl]-4-pyridyl]-difluoro-methyl]cyclohexanecarboxamide] the same measures were 1.1 µg/mL (≈ 1.61 µM), 1.1 µg/mL (≈ 1.61 µM), 1.1 µg/mL (≈ 1.61 µM), 5.85 nM and 6.15 mL/min/kg.
For `C[N+](C)(C)CCCNC(=O)c1ccc(C(F)(F)c2cc(Cl)nc(N3CCN(S(=O)(=O)c4ccc(N5C[C@H](N)CC5=O)cc4)CC3)c2)cc1` [Example 037], in that order: 1.5 µg/mL, 1.5 µg/mL, 0.73 µg/mL, less than 2.84 nM and 6.66 mL/min/kg.
`C[N+]1(CCCNC(=O)c2ccc(C(F)(F)c3cc(Cl)nc(N4CCN(S(=O)(=O)c5ccc(N6C[C@H](N)CC6=O)cc5)CC4)c3)cc2)CCCC1` [Example 038, 4-[[2-Chloro-6-[4-[4-[(4R)-4-amino-2-oxo-pyrrolidin-1-yl]phenyl]sulfonylpiperazin-1-yl]-4-pyridyl]-difluoro-methyl]-N-[3-(1-methylpyrrolidin-1-ium-1-yl)propyl]benzamide]: the MIC in series [1], in series [2] and in series [4] was 1.5 µg/mL each time. For the same molecule, the IC50 in series [3] is 4.1 nM. The “Clearance of Human microsome” value in series [5] is recorded as 6.80 mL/min/kg.
As for `N[C@@H]1CC(=O)N(c2ccc(S(=O)(=O)N3CCN(c4cc(C(F)(F)c5ccc(C(=O)NCCCNCCO)nc5)cc(Cl)n4)CC3)cc2)C1` [Example 039, 5-[[2-Chloro-6-[4-[4-[(4R)-4-amino-2-oxo-pyrrolidin-1-yl]phenyl]sulfonylpiperazin-1-yl]-4-pyridyl]-difluoro-methyl]-N-[3-(2-hydroxyethylamino)propyl]pyridine-2-carboxamide], the MIC worked out at 1.6 µg/mL (≈ 2.26 µM) in series [1], 1.6 µg/mL (≈ 2.26 µM) in series [2] and 0.82 µg/mL (≈ 1.16 µM) in series [4]. The IC50 in series [3] was 4.24 nM. In addition, in series [5], the “Clearance of Human microsome” value was found to be 6.15 mL/min/kg.
Regarding `NCCOCCNC(=O)[C@H]1CC[C@H](C(F)(F)c2cc(Cl)nc(N3CCN(S(=O)(=O)c4ccc(N5C[C@H](N)CC5=O)cc4)CC3)c2)CC1` [Example 042, Trans-N-[2-(2-aminoethoxy)ethyl]-4-[[2-chloro-6-[4-[4-[(4R)-4-amino-2-oxo-pyrrolidin-1-yl]phenyl]sulfonylpiperazin-1-yl]-4-pyridyl]-difluoro-methyl]cyclohexanecarboxamide], the MIC in series [1], in series [2] and in series [4] was 2.3 µg/mL (≈ 3.29 µM) each time. Also, the IC50 in series [3] was 11.5 nM. In addition, in series [5], the “Clearance of Human microsome” value was 11.12 mL/min/kg.
As to `NCCN(CCN)C(=O)[C@H]1CC[C@H](C(F)(F)c2cc(Cl)nc(N3CCN(S(=O)(=O)c4ccc(N5C[C@H](N)CC5=O)cc4)CC3)c2)CC1` [Example 043], the values for the MIC in series [1], in series [2] and in series [4] were 0.57 µg/mL (≈ 0.817 µM), 1.1 µg/mL (≈ 1.58 µM) and 1.1 µg/mL (≈ 1.58 µM), respectively. In addition, the half-maximal inhibitory concentration (IC50) in series [3] was 35.9 nM. Further, the “Clearance of Human microsome” value in series [5] is reported as 9.94 mL/min/kg.
`NCCCN(CCCN)C(=O)[C@H]1CC[C@H](C(F)(F)c2cc(Cl)nc(N3CCN(S(=O)(=O)c4ccc(N5C[C@H](N)CC5=O)cc4)CC3)c2)CC1` [Example 044, Trans-N,N-bis(3-aminopropyl)-4-[[2-chloro-6-[4-[4-[(4R)-4-amino-2-oxo-pyrrolidin-1-yl]phenyl]sulfonylpiperazin-1-yl]-4-pyridyl]-difluoro-methyl]cyclohexanecarboxamide]: the minimal inhibitory concentration (MIC) in series [1] stood at 0.62 µg/mL (≈ 0.855 µM); in series [2], 1.2 µg/mL (≈ 1.65 µM); in series [4], 1.2 µg/mL (≈ 1.65 µM). In addition, in series [3], the IC50 was 48.3 nM. In series [5], the “Clearance of Human microsome” value amounted to 7.30 mL/min/kg.
On to `NCCCN(CCCN)C(=O)C12CCC(C(F)(F)c3cc(Cl)nc(N4CCN(S(=O)(=O)c5ccc(N6C[C@H](N)CC6=O)cc5)CC4)c3)(CC1)CC2` [Example 045, N,N-bis(3-aminopropyl)-4-[[2-chloro-6-[4-[4-[(4R)-4-amino-2-oxo-pyrrolidin-1-yl]phenyl]sulfonylpiperazin-1-yl]-4-pyridyl]-difluoro-methyl]bicyclo[2.2.2]octane-1-carboxamide], for which the MIC came to 0.62 µg/mL (≈ 0.825 µM) in series [1], 0.62 µg/mL (≈ 0.825 µM) in series [2] and 1.2 µg/mL (≈ 1.6 µM) in series [4]. Further, the IC50 in series [3] is 18.6 nM. Moreover, in series [5], the “Clearance of Human microsome” value is given as 8.79 mL/min/kg.
As to `NCCN(CCN)CCCNC(=O)[C@H]1CC[C@H](C(F)(F)c2cc(Cl)nc(N3CCN(S(=O)(=O)c4ccc(N5C[C@H](N)CC5=O)cc4)CC3)c2)CC1` [Example 047], the minimal inhibitory concentration (MIC) in series [1] came to 0.35 µg/mL (≈ 0.464 µM); in series [2] it was 0.3 µg/mL (≈ 0.398 µM); in series [4] it was 0.3 µg/mL (≈ 0.398 µM). Also, in series [3], the IC50 is 6.63 nM. In addition, the “Clearance of Human microsome” value in series [5] came out at 6.15 mL/min/kg.
Take `N[C@@H]1CC(=O)N(c2ccc(S(=O)(=O)N3CCN(c4cc(C(F)(F)[C@H]5CC[C@H](C(=O)N6C[C@H](N)C[C@H](N)C6)CC5)cc(Cl)n4)CC3)cc2)C1` [Example 048, Trans-(4R)-4-amino-1-[4-[4-[6-chloro-4-[[4-cis-(3,5-diaminopiperidine-1-carbonyl)cyclohexyl]-difluoro-methyl]-2-pyridyl]piperazin-1-yl]sulfonylphenyl]pyrrolidin-2-one]: the MIC in series [1], in series [2] and in series [4] was 1.2 µg/mL (≈ 1.69 µM) throughout. Besides, the IC50 in series [3] is 18.3 nM. Further, the “Clearance of Human microsome” value in series [5] turned out to be 12.06 mL/min/kg.
For `N[C@@H]1C[C@H](N)CN(CCCNC(=O)[C@H]2CC[C@H](C(F)(F)c3cc(Cl)nc(N4CCN(S(=O)(=O)c5ccc(N6C[C@H](N)CC6=O)cc5)CC4)c3)CC2)C1` [Example 049, Trans-4-[[2-chloro-6-[4-[4-[(4R)-4-amino-2-oxo-pyrrolidin-1-yl]phenyl]sulfonylpiperazin-1-yl]-4-pyridyl]-difluoro-methyl]-N-[3-[cis-3,5-diamino-1-piperidyl]propyl]cyclohexanecarboxamide], the MIC in series [1] was 1.2 µg/mL (≈ 1.57 µM); in series [2], 1.2 µg/mL (≈ 1.57 µM); in series [4], 0.6 µg/mL (≈ 0.783 µM). Besides, in series [3], the IC50 was 9.13 nM. The “Clearance of Human microsome” value in series [5] is listed as 7.38 mL/min/kg.
